Laboratory results published in the supplement of paper PMC10307832.

Assays:
Test in all cases: relative viability (nuclei count vs DMSO), 5 days (fraction); higher = more cells survive
kb NB 142-70 + Dasatinib = compound: C1CSC2=C(C(=O)N1)SC3=C2C=C(C=C3)O [kb NB 142-70] + Cc1nc(Nc2ncc(C(=O)Nc3c(C)cccc3Cl)s2)cc(N2CCN(CCO)CC2)n1 [Dasatinib] (partner 0.075 µM)
Outline: (§1)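 The day after seeding in 1536-well plates, lung cancer cell lines were treated by pin tool with a single drug, or with a fixed anchor-drug dose together with five library-drug doses (not always all listed) in √10 steps. After 5 days, a combined fix-and-stain solution (final 0.05% Triton X-100, 1% formaldehyde, 1 ug/ml Hoechst) was added. Nuclei counted on 4× images gave relative viability as treated counts over vehicle counts, reported as the median of duplicate plates.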

[1] = compound: C1CSC2=C(C(=O)N1)SC3=C2C=C(C=C3)O [kb NB 142-70] + Nc1nc2[nH]cc(CCc3ccc(C(=O)N[C@@H](CCC(=O)O)C(=O)O)cc3)c2c(=O)[nH]1 [Pemetrexed] (partner 0.2 µM)
Outline: as §1

kb NB 142-70 + Olaparib = compound: C1CSC2=C(C(=O)N1)SC3=C2C=C(C=C3)O [kb NB 142-70] + O=C(c1cc(Cc2n[nH]c(=O)c3ccccc23)ccc1F)N1CCN(C(=O)C2CC2)CC1 [Olaparib] (partner 8 µM)
Outline: as §1

[2] = compound: NCC(=O)Nc1ccc(-n2nc(C(F)(F)F)cc2-c2ccc3c(ccc4ccccc43)c2)cc1 + CS(=O)(=O)CCNCc1ccc(-c2ccc3ncnc(Nc4ccc(OCc5cccc(F)c5)c(Cl)c4)c3c2)o1 [Lapatinib] (partner 2 µM)
Outline: as §1

[3] = compound: NCC(=O)Nc1ccc(-n2nc(C(F)(F)F)cc2-c2ccc3c(ccc4ccccc43)c2)cc1 + C[C@@H](Oc1cc(-c2cnn(C3CCNCC3)c2)cnc1N)c1c(Cl)ccc(F)c1Cl [Crizotinib] (partner 1 µM)
Outline: as §1

| Cell Line | relative viability (kb NB 142-70 + Dasatinib; first compound 0.1 µM) | relative viability (kb NB 142-70 + Dasatinib; first compound 1 µM) | relative viability (kb NB 142-70 + Dasatinib; first compound 3.162 µM) | relative viability ([1]; first compound 0.1 µM) | relative viability ([1]; first compound 1 µM) | relative viability ([1]; first compound 3.162 µM) | relative viability (kb NB 142-70 + Olaparib; first compound 0.1 µM) | relative viability (kb NB 142-70 + Olaparib; first compound 1 µM) | relative viability (kb NB 142-70 + Olaparib; first compound 3.162 µM) | relative viability ([2]; first compound 0.02 µM) | relative viability ([2]; first compound 0.06325 µM) | relative viability ([2]; first compound 0.2 µM) | relative viability ([2]; first compound 0.6325 µM) | relative viability ([2]; first compound 2 µM) | relative viability ([3]; first compound 0.02 µM) | relative viability ([3]; first compound 0.06325 µM) | relative viability ([3]; first compound 0.2 µM) | relative viability ([3]; first compound 0.6325 µM) | relative viability ([3]; first compound 2 µM) |
| --- | --- | --- | --- | --- | --- | --- | --- | --- | --- | --- | --- | --- | --- | --- | --- | --- | --- | --- | --- |
| EKVX | 0.559 | 0.289 | 0.729 | 0.35 | 0.399 | 0.378 | 0.853 | 0.88 | 0.984 | 0.213 | 0.216 | 0.228 | 0.223 | 0.203 | 1.2 | 0.973 | 0.896 | 1.06 | 0.868 |
| LXF-289 | 0.212 | 0.215 | 0.21 | 0.86 | 0.989 | 0.715 | 1.04 | 1.05 | 0.772 | 0.953 | 0.953 | 0.916 | 0.891 | 0.887 | 0.834 | 0.821 | 0.799 | 0.823 | 0.779 |
| NCI-H650 | 0.495 | 0.475 | 0.377 | 1.07 | 1.03 | 0.843 | 0.417 | 0.374 | 0.267 | 0.665 | 1.06 | 0.934 | 0.87 | 1.25 | 0.728 | 0.809 | 0.72 | 0.653 | 0.802 |
| NCI-H1650 | 0.348 | 0.382 | 0.253 | 0.315 | 0.419 | 0.481 | 0.9 | 0.881 | 0.854 | 0.812 | 0.797 | 0.472 | 0.801 | 0.929 | 1.11 | 1.14 | 0.836 | 1.08 | 1.19 |
| NCI-H2085 | 0.252 | 0.198 | 0.274 | 0.866 | 0.947 | 0.792 | 0.742 | 0.727 | 0.487 | 0.718 | 0.78 | 0.742 | 0.813 | 0.818 | 0.862 | 0.901 | 0.938 | 0.865 | 0.819 |
| LC-2-ad | 0.609 | 0.607 | 0.463 | 0.275 | 0.23 | 0.295 | 0.681 | 0.716 | 0.649 | 0.967 | 0.932 | 1.02 | 0.96 | 1.06 | 0.463 | 0.543 | 0.433 | 0.47 | 0.389 |
| COR-L 105 | 0.363 | 0.33 | 0.345 | 1.14 | 1.08 | 0.925 | 0.82 | 0.637 | 0.726 | 0.418 | 0.33 | 0.401 | 0.39 | 0.437 | 0.873 | 0.765 | 0.803 | 0.845 | 1.06 |
| NCI-H1355 | 0.7 | 0.642 | 0.64 | 0.943 | 1.06 | 1.04 | 0.818 | 0.744 | 0.775 | 1 | 1.05 | 1.08 | 0.951 | 1.05 | 0.959 | 1.2 | 1.03 | 0.946 | 1.07 |
